{
  "source": "patent US20080226596A1",
  "about": "“Therapeutic compositions and methods useful in treating hepatitis” (priority 2006, published 2008)",
  "key": {"WM9 transfectants": {"test_system": "WM9 transfectants", "test": "Growth of WM9 transfectants, MTT assay", "assay_type": "cell-based, human", "settings": "50 or 100 μg/ml, 6 days", "method": "(§1) NIH3T3 (Yi, et al., Blood 85, 87 (1995)), WM9 (Forsberg, et al., Proc. Nat. Acad Sci. USA 90, 393 (1993)), DU145 (Mickey, et al., Cancer Res. 37, 4049 (1977)), LoVo (Drewinko, et al., Cancer Res. 36, 467 (1976)), HEY (Buick, et al., Cancer Res. 45, 3668 (1985)), U251 (Yoshida, et al., Cancer 50, 410 (1982)), A549 (Giard, et al., J. Natl. Cancer Inst. 51, 1417 (1973)) and SK-N-SH (Helson, et al., Cancer Res. 35, 2594 (1975)) cell lines have been described and were cultured in RPMI 1640 supplemented with 10% fetal calf serum (FCS). For measurement of sodium stibogluconate effects on cell growth in vitro, cells were cultured in the absence (−) or presence (+) of various amounts of sodium stibogluconate for 6 days with viable cells quantified by MTT assays (Mosmann, J. Immunol. Methods 65, 55 (1983)). Percentages of growth inhibition by sodium stibogluconate were calculated (.+−.x\nThe effects of sodium stibogluconate on intracellular PTPases were assessed using NIH3T3 or WM9 transfectants. NIH3T3 or WM9 cells were transfected with the pBabepuro vector (V) or pBabepuro expression constructs of Flag-tagged PRLs using Lipofectamine (BRL) following the manufacturer's procedures. […]"}, "DU145 cells": {"test_system": "DU145 cells", "test": "DU145 prostate cancer cell growth, MTT assay", "assay_type": "cell-based, human", "settings": "single agent, 50-100 μg/ml, day 6", "method": "(§2) For cell proliferation assays, cells were grown in 10% FCS culture medium containing various amounts of IFNs and/or sodium stibogluconate in 96 well plates and cultured at 37° C. for 3 or 6 days as indicated. The numbers of viable cells in proliferation assays were determined by MTT assays as described in Phatak et al., J. Immunol. 167, 3391 (2001).\nas §1"}, "SHP-1": {"biological_target": "T1, SHP-1 (Mus musculus, UniProt P29351)", "T1 construct": "made in house", "T1 sequence (P29351 whole entry)": "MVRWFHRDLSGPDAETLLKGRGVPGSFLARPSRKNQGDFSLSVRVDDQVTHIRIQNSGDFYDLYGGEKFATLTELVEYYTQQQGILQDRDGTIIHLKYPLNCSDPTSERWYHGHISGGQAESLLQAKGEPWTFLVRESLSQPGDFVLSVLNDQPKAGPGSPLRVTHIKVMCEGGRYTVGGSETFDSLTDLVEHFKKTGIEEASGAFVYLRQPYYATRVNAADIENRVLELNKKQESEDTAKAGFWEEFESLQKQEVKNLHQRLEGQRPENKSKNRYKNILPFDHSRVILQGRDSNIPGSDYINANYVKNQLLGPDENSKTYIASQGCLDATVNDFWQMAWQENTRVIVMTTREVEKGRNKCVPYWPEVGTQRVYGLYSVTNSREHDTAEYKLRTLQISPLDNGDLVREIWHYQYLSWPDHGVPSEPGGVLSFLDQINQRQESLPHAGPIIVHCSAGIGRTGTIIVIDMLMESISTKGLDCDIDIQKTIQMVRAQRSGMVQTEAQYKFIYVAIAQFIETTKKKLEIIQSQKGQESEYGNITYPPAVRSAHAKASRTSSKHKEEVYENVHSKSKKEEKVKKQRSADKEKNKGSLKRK", "test": "Reversibility of SHP-1 inhibition (washing of bead-bound GST/SHP-1)", "assay_type": "biochemical", "settings": "pre-incubated 4° C. 30 minutes, washed 3 times", "description": "The beads were then either subjected to in vitro PTPase assays or washed 3 times in Tris buffer then subjected to in vitro PTPase assays."}, "[1]": {"test_system": "DU145 human prostate carcinoma xenografts", "test": "DU145 xenografts in nude mice", "assay_type": "in vivo", "settings": "440 mg/kg daily", "method": "The dosage of sodium stibogluconate corresponds to approximately 440 mg Sb/kg body weight (average mouse body weight 27 g), substantially higher than the standard therapeutic dose of 20 mg Sb/kg and the high dose (143 mg Sb/kg) that was clinically used by accident without serious toxicity. This dose of sodium stibogluconate was based on a previous observation in a pilot study that mice could tolerate daily dose of 20 mg Sb (approximately 700-800 mg Sb/kg). […] In light of the relatively rapid rate of clearance of the drug in vivo, 440 mg Sb/kg dosage was used to ensure the detection of the effectiveness of the drug for this initial study.\nFor each of the cell lines, each of 16 mice received subcutaneous injection at the chest area of 3×10^6 cells/site (WM9) or 2×10^6 cells/site (DU145), two sites/mouse, on day 0. Mice were separated into four groups of four to receive treatment, injected into the thigh area starting on day 2. Tumor size was measured with a caliper to determine the two perpendicular diameters of each tumor. Tumor volume was calculated using the method of the NCI (length×width 2 in millimeters/2=volume in cubic millimeters). […]"}, "WM35 cells": {"test_system": "WM35 cells", "test": "WM35 melanoma cell growth", "assay_type": "cell-based, human", "method": "as §2"}, "[2]": {"test_system": "Jak2/Stat5 tyrosine phosphorylation", "test": "IL-3-induced Jak2/Stat5 tyrosine phosphorylation in Baf3 cells", "assay_type": "cell-based, murine", "method": "For induction of cellular protein phosphorylation by sodium stibogluconate or pervanadate, Baf3 cells were incubated in 0.1% FCS-RPMI 1640 medium at 37° C. for 16 hours. The cells were then washed twice in RPMI 1640 medium and incubated with sodium stibogluconate or pervanandate (0.1 mM) for various times prior to termination by lysing cells in cold lysis buffer (50 mM Tris, pH 7.4; 150 mM NaCl; 0.2 mM Na3VO4; 20 mm NaF; 1% Nonidet P-40; 2 mM PMSF; 20 µg/ml of Aprotinin and 1 mM of sodium molybdic acid). To determine the effect of sodium stibogluconate or potassium antimonyl tartrate on IL-3-induced Jak/Stat phosphorylation, Baf3 cells were deprived of the growth factor for 16 hours in 0.1% FCS RPMI 1640 medium and then incubated with or without sodium stibogluconate or potassium antimonyl tartrate for 10 minutes. IL-3 was next added to the cell suspension and incubated for various times. The Cells were then harvested and lysed in cold lysis buffer at 4° C. for 45 minutes. Total cell lysates (TCL) were separated in SDS-PAGE gels, blotted onto nitrocellulose membrane (Schleicher & Schuell), probed with specific antibodies and detected using an enhanced chemiluminescence kit (ECL, Amersham, Arlington Heights, Ill.)."}, "[3]": {"test_system": "Stat1 tyrosine phosphorylation", "test": "IFN-alpha-induced Stat1 tyrosine phosphorylation in human cancer cell lines", "assay_type": "cell-based", "method": "Cell lysates were prepared by lysing cells in cold lysis buffer for 30 min and cleared by centrifuging at 14,000 rpm at 4° C. for 15 min. For SDS-PAGE, cell lysates were mixed with equal volume of 2×SDS-PAGE sample buffer, heated at 90° C. for 5 min and separated in 10% SDS-PAGE gels. Cellular proteins in SDS-PAGE gels were transferred to nitrocellulose membrane (Schleicher & Schuell, Keene, N.H.), blocked in 5% milk, probed with antibodies and detected by using an enhanced chemiluminescence kit (ECL, Amersham, Arlington Heights, Ill.)."}},
  "note": "Entries after “also recorded” stand apart in the source; their conditions may differ.",
  "data": [
    {"compound": "O.O.O.O.O.O.O.O.O.O=C([O-])[C@@H]1[O][Sb]2([O-])([O][Sb]34([OH])[O][C@H]([C@H](O)CO)[C@H]([O]3)[C@H](C(=O)[O-])[O]4)[O][C@H]([C@H](O)CO)[C@@H]1[O]2.[Na+].[Na+].[Na+]", "note": "[sodium stibogluconate]", "values": [
      {"measurement": "growth of R86 cells", "setting": "WM9 transfectants", "result": "only modest growth inhibition"},
      {"measurement": "killing of DU145 cells", "setting": "DU145 cells", "result": "killed all cells; also recorded: complete or near complete killing; also recorded: near-complete cell killing"},
      {"measurement": "inhibition of GST/SHP-1 after washing", "setting": "SHP-1", "result": "not affected by washing"},
      {"measurement": "histology of major organs", "setting": "[1]", "result": "unremarkable"},
      {"measurement": "survival of DU145-inoculated mice", "setting": "[1]; until the end of the study", "result": "survived"},
      {"measurement": "effect on WM35 cells", "setting": "WM35 cells", "result": "minimally affected"},
      {"measurement": "phosphotyrosine levels of Jak2 and Stat5 relative to cells without drug", "setting": "[2]; IL-3 stimulated, drug 10 minutes before, densitometry", "result": "about twice"},
      {"measurement": "Jak2/Stat5 tyrosine phosphorylation by drug alone", "setting": "[2]; no IL-3, 37 C 16 hours", "result": "failed to induce Jak2/Stat5 tyrosine phosphorylation"},
      {"measurement": "Stat1 tyrosine phosphorylation by drug alone", "setting": "[3]; DR cells, absence of IFN-alpha", "result": "failed to induce Stat1 tyrosine phosphorylation"},
      {"measurement": "IFN-alpha-induced Stat1 tyrosine phosphorylation", "setting": "[3]; DU145 cells, 5 hours post-stimulation", "result": "Enhanced"},
      {"measurement": "IFN-alpha-induced Stat1 tyrosine phosphorylation", "setting": "[3]; WM9 cells, 5 hours post-stimulation", "result": "Enhanced"},
      {"measurement": "IFN-alpha-induced Stat1 tyrosine phosphorylation", "setting": "[3]; WM35 cells", "result": "failed to enhance"},
      {"measurement": "IFN-alpha-induced Stat1 tyrosine phosphorylation", "setting": "[3]; WiT49-N1 cells", "result": "failed to enhance"}
    ]}
  ]
}
